# According to patent US6905706B2, “Medicinal herbal extract carpediol for treating depression” (Swedish Herbal Institute, priority 2002, dated 2005):
# “And” between values parts separate entries of the source, which are not always exact repeats. Equal values may be shown once.
# Assay: Effect of co-administered extracts on the pharmacokinetics of theophylline in rats
# Description: Carpediol spissum (Batch No Ex 20404); Swedish Herbal Institute, Gothenburg, Sweden) as described above in Example 1. […] It was analyzed for purity by HPLC, Capillary electrophoresis, ^1H-NMR and ^13C-NMR. • (e) Internal standard: Methyl-4-hydroxybenzoate 99%, F.W. 152.15 Aldrich. • (f) Water, demonized and distilled. • (g) Water for High Performance Capillary Electrophoresis (HPCE), HEWLETT-PACKARD. • (h) Buffer pH=9.3 for HPCE (50 mM Borate). • (i) 0.1N Sodium Hydroxide Solution for HPCE. • (j) Chloroform HPLC grade. • (k) 2-Propanol spectrophotometric grade. • (l) Methanol Chromasorv.
# Animals—In this study, 144 time-mated male Wistar rats were used. Breeder: Institute of Fine Organic Chemistry of the National Academy of Science, Yerevan. The initial weight of the animals: 130-170 g (mean weight 149.93±12.4 g). […] All animals were clinically examined upon arrival and any animal showing signs of abnormality or disease was excluded. Animals considered unsuitable for the study were replaced before the start. No animal was replaced following the start of the study.
# Dosage and Administration—An appropriate amount of herbal extract was dissolved in distilled water and given at 10:00-10:30 am by oral gavage. Suspensions were shaken gently before oral administration. Suspensions were prepared fresh every day. Control animals were given an appropriate volume of drinking water. Blood samples from rats receiving the carrier only were also analyzed.
# Groups of six animals were treated orally with water (10 ml×2 times per day) for three days. 60 minutes after last administration of water, a solution of Aminophylline (10 ml/kg) was given to each animal in dose of 240 mg/kg (corresponding to 192 mg/kg of Theophylline) and blood samples were taken 0.25, 0.5, 1.0, 2.0, 4.0, 6.0 and 8.0 hours after the theophylline administration. A separate group of animals was used for each time point.
# It was administered orally in a volume of 10 ml/kg of body weight. Freshly prepared extract was administered two times daily for 3 consecutive days. Single dose—25 mg/kg, daily dose—50 mg/kg. 60 minutes after last administration, a water solution of Aminophylline (10 ml/kg) was given to each animal in dose of 240 mg/kg (corresponding to 192 mg/kg of Theophylline) and blood samples were taken 0.25, 0.5, 1.0, 2.0, 4.0, 6.0 and 8.0 hours after the theophylline administration. A separate group of animals was used for each time point.
# One tablet of Jarsin 300 was suspended in 10 ml of water and administered two times daily for 3 consecutive days. 60 minutes after last administration, water solution of Aminophylline (10 ml/kg) was given to each animal in dose of 240 mg/kg (corresponding to 192 mg/kg of Theophylline) and blood samples were taken 0.25, 0.5, 1.0, 2.0, 4.0, 6.0 and 8.0 hours after the theophylline administration. A separate group of animals was used for each time point.
# Sampling of blood and sample preparation—Animals were sacrificed by laboratory guillotine. Following decapitation, blood was collected separately in centrifuge tubes and centrifuged at 3000 rpm for 10 min. Blood serum was separated and 50 μl was taken for theophylline assay. Conservation of the samples: the centrifuge tubes were closed with caps, frozen and stored in a freezer for 1-3 days prior to bio-assay.
# Analytical Method: Capillary Electrophoresis—A modified capillary electrophoresis method was used, using an internal standard and as a mobile phase 50 mM borate buffer (pH 9.3) without SDS.
# Pre-assay preparation—The Ramzan et al. method (52) of extraction of theophylline from serum was modified as follows. 50 μl of blood serum was added to 10 μl of an internal standard methanol solution (methyl-paraben, 60 μg/ml) in centrifuge tube to obtain final concentration of methyl paraben 10 μg/ml. The solution was vortexed vigorously for 10 sec and 1 ml of solvent system of isopropanol. and chloroform in a 5:95 ratio was added for extraction.
# [1] = Group 1 (water control), rats, calculated by mean concentrations
# [2] = Group 1 (water control), rats, mean of 6 series (column A)
# [3] = Group 2 (CRE pretreatment), rats, calculated by mean concentrations
# [4] = Group 2 (CRE pretreatment), rats, mean of 6 series (column A)
# [5] = Group 3 (Jarsin 300 pretreatment), rats, calculated by mean concentrations
# [6] = Group 3 (Jarsin 300 pretreatment), rats, mean of 6 series (column A)
smiles,measurement,setting,value
"Cn1c(=O)c2[nH]cnc2n(C)c1=O [Theophylline, 1,3-dimethylxantin]",Concentration of Theophylline in Rat Serum,"Group 1 (water control), aminophylline 240 mg/kg p.o., 15 min, single rat",181.11 µg/mL and 172.059 µg/mL and 225.306 µg/mL and 153.35 µg/mL and 146.67 µg/mL and 101.82 µg/mL
same,Concentration of Theophylline in Rat Serum,"Group 1 (water control), aminophylline 240 mg/kg p.o., 30 min, single rat",135.41 µg/mL and 89.49 µg/mL and 50.10 µg/mL and 143.18 µg/mL and 337.56 µg/mL and 101.83 µg/mL
same,Concentration of Theophylline in Rat Serum,"Group 1 (water control), aminophylline 240 mg/kg p.o., 60 min, single rat",138.11 µg/mL and 194.27 µg/mL and 255.06 µg/mL and 154.77 µg/mL and 231.79 µg/mL and 86.37 µg/mL
same,Concentration of Theophylline in Rat Serum,"Group 1 (water control), aminophylline 240 mg/kg p.o., 120 min, single rat",57.30 µg/mL and 71.98 µg/mL and 61.23 µg/mL and 97.22 µg/mL and 56.61 µg/mL
same,Concentration of Theophylline in Rat Serum,"Group 1 (water control), aminophylline 240 mg/kg p.o., 240 min, single rat",77.66 µg/mL and 94.86 µg/mL and 114.84 µg/mL and 61.03 µg/mL and 105.31 µg/mL and 169.15 µg/mL
same,Concentration of Theophylline in Rat Serum,"Group 1 (water control), aminophylline 240 mg/kg p.o., 360 min, single rat",43.95 µg/mL and 42.46 µg/mL and 73.58 µg/mL and 77.92 µg/mL and 81.94 µg/mL and 31.38 µg/mL
same,Concentration of Theophylline in Rat Serum,"Group 1 (water control), aminophylline 240 mg/kg p.o., 480 min, single rat",22.05 µg/mL and 69.25 µg/mL and 63.68 µg/mL and 44.98 µg/mL and 89.99 µg/mL and 16.09 µg/mL
same,Clt of Theophylline,[1],0.4642 mL/min
same,Kel of Theophylline,[1],0.149 h⁻¹
same,Vd of Theophylline,[1],0.1871 L
same,"Clt of Theophylline, Mean",[2],0.4973 mL/min and 0.497 ± 0.055 mL/min
same,"Cmax of Theophylline, Mean",[2],195.2 ± 32.9 µg/mL
same,"Kel of Theophylline, Mean",[2],0.1638 h⁻¹ and 0.164 ± 0.02 h⁻¹
same,"MRT of Theophylline, Mean",[2],6.6239 ± 0.70 h
same,"Vd of Theophylline, Mean",[2],0.186 ± 0.015 L
same,"t1/2 of Theophylline, Mean",[2],4.504 ± 0.47 h
same,Clt of Theophylline,"Group 1 (water control), rats, single series",0.441 mL/min and 0.3881 mL/min and 0.4945 mL/min and 0.3453 mL/min and 0.6439 mL/min and 0.671 mL/min
same,Concentration of Theophylline in Rat Serum,"Group 2 (CRE pretreatment 3 days), aminophylline 240 mg/kg p.o., 15 min, single rat",192.873 µg/mL and 144.71 µg/mL and 164.57 µg/mL and 161.40 µg/mL and 98.74 µg/mL and 8.06 µg/mL
same,Concentration of Theophylline in Rat Serum,"Group 2 (CRE pretreatment 3 days), aminophylline 240 mg/kg p.o., 30 min, single rat",190.52 µg/mL and 145.07 µg/mL and 223.28 µg/mL and 30.54 µg/mL and 154.41 µg/mL and 81.52 µg/mL
same,Concentration of Theophylline in Rat Serum,"Group 2 (CRE pretreatment 3 days), aminophylline 240 mg/kg p.o., 60 min, single rat",158.01 µg/mL and 189.11 µg/mL and 120.37 µg/mL and 158.89 µg/mL and 119.72 µg/mL
same,Concentration of Theophylline in Rat Serum,"Group 2 (CRE pretreatment 3 days), aminophylline 240 mg/kg p.o., 120 min, single rat",205.63 µg/mL and 140.04 µg/mL and 180.859 µg/mL and 96.55 µg/mL and 68.74 µg/mL and 91.30 µg/mL
same,Concentration of Theophylline in Rat Serum,"Group 2 (CRE pretreatment 3 days), aminophylline 240 mg/kg p.o., 240 min, single rat",89.87 µg/mL and 65.03 µg/mL and 61.82 µg/mL and 134.64 µg/mL and 148.86 µg/mL and 115.97 µg/mL
same,Concentration of Theophylline in Rat Serum,"Group 2 (CRE pretreatment 3 days), aminophylline 240 mg/kg p.o., 360 min, single rat",35.31 µg/mL and 7.61 µg/mL and 20.21 µg/mL and 233.16 µg/mL and 91.61 µg/mL and 38.01 µg/mL
same,Concentration of Theophylline in Rat Serum,"Group 2 (CRE pretreatment 3 days), aminophylline 240 mg/kg p.o., 480 min, single rat",7.16 µg/mL and 34.98 µg/mL and 45.36 µg/mL and 56.71 µg/mL and 33.96 µg/mL and 12.51 µg/mL
same,Clt of Theophylline,[3],0.502 mL/min
same,Kel of Theophylline,[3],0.2042 h⁻¹
same,Vd of Theophylline,[3],0.1475 L
same,"Clt of Theophylline, Mean",[4],0.5670 mL/min and 0.567 ± 0.067 mL/min
same,"Kel of Theophylline, Mean",[4],0.2706 h⁻¹ and 0.271 ± 0.035 h⁻¹
same,"Vd of Theophylline, Mean",[4],0.130 ± 0.014 L
same,Cmax of Theophylline,"Group 2 (CRE pretreatment), rats, single series",223.3 µg/mL and 161.4 µg/mL and 158.9 µg/mL and 119.7 µg/mL and 192.9 µg/mL
same,Concentration of Theophylline in Rat Serum,"Group 3 (Jarsin 300 pretreatment 3 days), aminophylline 240 mg/kg p.o., 15 min, single rat",4.86 µg/mL and 5.81 µg/mL
same,Concentration of Theophylline in Rat Serum,"Group 3 (Jarsin 300 pretreatment 3 days), aminophylline 240 mg/kg p.o., 30 min, single rat",25.01 µg/mL and 34.73 µg/mL and 27.80 µg/mL
same,Concentration of Theophylline in Rat Serum,"Group 3 (Jarsin 300 pretreatment 3 days), aminophylline 240 mg/kg p.o., 60 min, single rat",23.33 µg/mL and 30.97 µg/mL and 34.52 µg/mL
same,Concentration of Theophylline in Rat Serum,"Group 3 (Jarsin 300 pretreatment 3 days), aminophylline 240 mg/kg p.o., 120 min, single rat",16.13 µg/mL and 44.11 µg/mL and 20.84 µg/mL
same,Concentration of Theophylline in Rat Serum,"Group 3 (Jarsin 300 pretreatment 3 days), aminophylline 240 mg/kg p.o., 240 min, single rat",4.46 µg/mL and 16.77 µg/mL and 19.04 µg/mL
same,Concentration of Theophylline in Rat Serum,"Group 3 (Jarsin 300 pretreatment 3 days), aminophylline 240 mg/kg p.o., 360 min, single rat",5.85 µg/mL and 11.58 µg/mL
same,Concentration of Theophylline in Rat Serum,"Group 3 (Jarsin 300 pretreatment 3 days), aminophylline 240 mg/kg p.o., 480 min, single rat",2.34 µg/mL and 5.71 µg/mL
same,Clt of Theophylline,[5],2.310 mL/min
same,Kel of Theophylline,[5],0.2022 h⁻¹
same,Vd of Theophylline,[5],0.6853 L
same,"Clt of Theophylline, Mean",[6],2.671 mL/min and 2.671 ± 0.637 mL/min
same,"Kel of Theophylline, Mean",[6],0.2204 h⁻¹ and 0.220 ± 0.033 h⁻¹
same,"Vd of Theophylline, Mean",[6],0.722 ± 0.091 L
same,Cmax,"male, Wistar, rat, in vivo, 240 mg/kg, Cmax of Theophylline, Group 1 (water control), rats, calculated by mean concentrations, 60 minutes",177 µg/mL
same,concentration at 120 min,"male, Wistar, rat, in vivo, 240 mg/kg, Concentration of Theophylline in Rat Serum, Group 1 (water control), aminophylline 240 mg/kg p.o., 120 min, single rat",96.3 µg/mL
same,concentration at 15 min,"male, Wistar, rat, in vivo, 240 mg/kg, Concentration of Theophylline in Rat Serum, Mean, Group 1 (water control), aminophylline 240 mg/kg p.o., 15 min, mean n=6",163 µg/mL
same,concentration at 30 min,"male, Wistar, rat, in vivo, 240 mg/kg, Concentration of Theophylline in Rat Serum, Mean, Group 1 (water control), aminophylline 240 mg/kg p.o., 30 min, mean n=6",143 µg/mL
same,concentration at 60 min,"male, Wistar, rat, in vivo, 240 mg/kg, Concentration of Theophylline in Rat Serum, Mean, Group 1 (water control), aminophylline 240 mg/kg p.o., 60 min, mean n=6",177 µg/mL
same,concentration at 120 min,"male, Wistar, rat, in vivo, 240 mg/kg, Concentration of Theophylline in Rat Serum, Mean, Group 1 (water control), aminophylline 240 mg/kg p.o., 120 min, mean n=6",73.4 µg/mL
same,concentration at 240 min,"male, Wistar, rat, in vivo, 240 mg/kg, Concentration of Theophylline in Rat Serum, Mean, Group 1 (water control), aminophylline 240 mg/kg p.o., 240 min, mean n=6",104 µg/mL
same,concentration at 360 min,"male, Wistar, rat, in vivo, 240 mg/kg, Concentration of Theophylline in Rat Serum, Mean, Group 1 (water control), aminophylline 240 mg/kg p.o., 360 min, mean n=6",58.5 µg/mL
same,concentration at 480 min,"male, Wistar, rat, in vivo, 240 mg/kg, Concentration of Theophylline in Rat Serum, Mean, Group 1 (water control), aminophylline 240 mg/kg p.o., 480 min, mean n=6",51 µg/mL
